Patent EP0475531A1, “Benzoic acid phenylester compounds and elastase inhibiting compositions containing the same” (Asahi Kasei Kogyo Kabushiki Kaisha, priority 1990, dated 1992)

These molecules were tested against T1, human leukocyte elastase (Homo sapiens, UniProt P08246) (assay: in vitro human leukocyte elastase inhibiting activity (fluorogenic substrate, method of JP-A-2-101017 with slight modification)). Conditions: not given.
T1 sequence (P08246 30-267): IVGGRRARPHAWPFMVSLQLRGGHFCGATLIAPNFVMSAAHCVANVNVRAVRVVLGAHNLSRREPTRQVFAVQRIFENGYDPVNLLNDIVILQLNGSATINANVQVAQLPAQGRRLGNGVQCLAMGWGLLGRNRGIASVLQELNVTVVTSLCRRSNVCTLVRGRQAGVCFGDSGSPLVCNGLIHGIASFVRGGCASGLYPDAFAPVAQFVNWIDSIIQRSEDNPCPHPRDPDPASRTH
Type: biochemical
Protocol: Thus, methoxysuccinyl-Ala-Ala-Pro-Val-7-amido-4-methylcoumarin was used as a substrate for human leukocyte elastase and the 50% inhibitory concentration (IC₅₀) was measured. The enzymatic reaction was carried out in 0.2 M Tris-hydrochloride buffer (containing 0.02 M CaCl₂ and 0.005% Triton X-100) at pH 7.2. Each mixture of test compound solution and the enzyme solution was incubated at 25°C for 20 minutes.

SMILES	IC50 [nM]
CN(C)C(=O)Oc1cc(Cl)cc(OC(=O)c2ccc(NC(=O)C(C)(C)C)cc2)c1 [Compound 58, 3-chloro-5-(dimethylaminocarbonyloxy)phenyl 4-(pivaloylamino)benzoate]	3.5

Same assay, conditions: 50% inhibitory concentration; substrate methoxysuccinyl-Ala-Ala-Pro-Val-7-amido-4-methylcoumarin; 0.2 M Tris-hydrochloride buffer (0.02 M CaCl2, 0.005% Triton X-100), pH 7.2; compound and enzyme incubated at 25°C for 20 minutes; read-out: IC50

SMILES	IC50 [nM]
CSC(C)C(=O)Nc1ccc(C(=O)Oc2cc(Cl)cc(Cl)c2)cc1 (stereo not shown) [Compound 38, 3,5-dichlorophenyl 4-(2-methylthiopropanoylamino)benzoate]	18
O=C(C=Cc1ccccc1)Nc1ccc(C(=O)Oc2cc(Cl)cc(Cl)c2)cc1 [Compound 21, 3,5-dichlorophenyl 4-(cinnamoylamino)benzoate]	140
CC(C)C(=O)Nc1ccc(C(=O)Oc2cc(Cl)cc(OS(=O)(=O)C=Cc3ccccc3)c2)cc1 [Compound 86, 3-chloro-5-(β-styrenesulfonyloxy)phenyl 4-(isobutanoylamino)benzoate]	24
CC(C)C(=O)Nc1ccc(C(=O)Oc2cc(Cl)cc(OC(=O)C=Cc3ccccc3)c2)cc1 [Compound 80, 3-cinnamoyloxy-5-chlorophenyl 4-(isobutanoylamino)benzoate]	24
CC(C)C(=O)Nc1ccc(C(=O)Oc2cc(F)ccc2F)cc1 [Compound 68, 2,5-difluorophenyl 4-(isobutanoylamino)benzoate]	110
CCCCC(=O)Nc1ccc(C(=O)Oc2cc(Cl)cc(Cl)c2)cc1 [Compound 4, 3,5-dichlorophenyl 4-(pentanoylamino)benzoate]	23
CC(C)CC(=O)Nc1ccc(C(=O)Oc2cc(Cl)cc(Cl)c2)cc1 [Compound 19, 3,5-dichlorophenyl 4-(3-methylbutanoylamino)benzoate]	96
CC(C)C(=O)Nc1ccc(C(=O)Oc2cc(O)cc(Cl)c2)cc1 [Compound 73, 3-chloro-5-hydroxyphenyl 4-(isobutanoylamino)benzoate]	110
CCCCCCCC(=O)Nc1ccc(C(=O)Oc2cc(Cl)cc(Cl)c2)cc1 [Compound 6, 3,5-dichlorophenyl 4-(octanoylamino)benzoate]	110
CC(C)C(=O)Nc1ccc(C(=O)Oc2cc(F)cc(F)c2)cc1 [Compound 70, 3,5-difluorophenyl 4-(isobutanoylamino)benzoate]	26
CC(C)C(=O)Nc1ccc(C(=O)Oc2cccc(C(F)(F)F)c2)cc1 [Compound 94, 3-trifluoromethylphenyl 4-(isobutanoylamino)benzoate]	240
CC(S)C(=O)Nc1ccc(C(=O)Oc2cc(Cl)cc(Cl)c2)cc1 (stereo not shown) [Compound 39, 3,5-dichlorophenyl 4-(2-mercaptopropanoylamino)benzoate]	96
O=C(Cc1cccs1)Nc1ccc(C(=O)Oc2cc(Cl)cc(Cl)c2)cc1 [Compound 37, 3,5-dichlorophenyl 4-(2-thienylacetylamino)benzoate]	79
CCCCCNC(=O)Nc1ccc(C(=O)Oc2cc(Cl)cc(Cl)c2)cc1 [Compound 30, 3,5-dichlorophenyl 4-(3-pentylureido)benzoate]	190
CN(C)C(=O)Nc1ccc(C(=O)Oc2cc(Cl)cc(Cl)c2)cc1 [Compound 32, 3,5-dichlorophenyl 4-(3,3-dimethylureido)benzoate]	5.9
CCS(=O)(=O)Oc1cc(Cl)cc(OC(=O)c2ccc(NC(=O)C(C)C)cc2)c1 [Compound 83, 3-chloro-5-(ethanesulfonyloxy)phenyl 4-(isobutanoylamino)benzoate]	25
CC(C)C(=O)Nc1ccc(C(=O)Oc2cccc(Br)c2)cc1 [Compound 72, 3-bromophenyl 4-(isobutanoylamino)benzoate]	21
O=C(Oc1cc(Cl)cc(Cl)c1)c1ccc(NC(=O)C(F)(F)F)cc1 [Compound 11, 3,5-dichlorophenyl 4-(trifluoroacetylamino)benzoate]	67
COC(=O)Nc1ccc(C(=O)Oc2cc(Cl)cc(Cl)c2)cc1 [Compound 33, 3,5-dichlorophenyl 4-(methoxycarbonylamino)benzoate]	26

The next lines start with the values.

IC50 [nM]	SMILES
21	CC(C)C(=O)Nc1ccc(C(=O)Oc2cc(Cl)cc(OS(=O)(=O)Cc3ccccc3)c2)cc1 [Compound 84, 3-chloro-5-(phenylmethanesulfonyloxy)phenyl 4-(isobutanoylamino)benzoate]
21	CCNC(=O)Nc1ccc(C(=O)Oc2cc(Cl)cc(Cl)c2)cc1 [Compound 27, 3,5-dichlorophenyl 4-(3-ethylureido)benzoate]
18	O=C(Oc1cc(Cl)cc(Cl)c1)c1ccc(NC(=O)C2CCCCC2C(=O)O)cc1 (stereo not shown) [Compound 44, 3,5-dichlorophenyl 4-(2-hydroxycarbonylcyclohexanecarbonylamino)benzoate]
18	CC(C)C(=O)Nc1ccc(C(=O)Oc2cc(Cl)cc(OS(C)(=O)=O)c2)cc1 [Compound 82, 3-chloro-5-(methanesulfonyloxy)phenyl 4-(isobutanoylamino)benzoate]
16	CCCNC(=O)Nc1ccc(C(=O)Oc2cc(Cl)cc(Cl)c2)cc1 [Compound 28, 3,5-dichlorophenyl 4-(3-propylureido)benzoate]
13	CC(C)NC(=O)Nc1ccc(C(=O)Oc2cc(Cl)cc(Cl)c2)cc1 [Compound 31, 3,5-dichlorophenyl 4-(3-isopropylureido)benzoate]
12	CC(C(=O)Nc1ccc(C(=O)Oc2cc(Cl)cc(Cl)c2)cc1)c1ccccc1 (stereo not shown) [Compound 20, 3,5-dichlorophenyl 4-(2-methyl-2-phenylacetylamino)benzoate]
9.6	CC(C)C(=O)Nc1ccc(C(=O)Oc2cc(Cl)cc(OC(=O)C3(C)CC3)c2)cc1 [Compound 78, 3-chloro-5-(1-methylcyclopropanecarbonyloxy)phenyl 4-(isobutanoylamino)benzoate]
9.3	CC(C)C(=O)Nc1ccc(C(=O)Oc2ccccc2C#N)cc1 [Compound 61, 2-cyanophenyl 4-(isobutanoylamino)benzoate]
9	CC=CC(=O)Nc1ccc(C(=O)Oc2cc(Cl)cc(Cl)c2)cc1 [Compound 13, 3,5-dichlorophenyl 4-(2-butenoylamino)benzoate]
7.7	O=C(Oc1cc(Cl)cc(Cl)c1)c1ccc(NC(=O)C2CC2)cc1 [Compound 15, 3,5-dichlorophenyl 4-(cyclopropanecarbonylamino)benzoate]
7.6	O=C(O)CCCC(=O)Nc1ccc(C(=O)Oc2cc(Cl)cc(Cl)c2)cc1 [Compound 43, 3,5-dichlorophenyl 4-(glutarylamino)benzoate]
6.7	CC(C)(CC#N)C(=O)Nc1ccc(C(=O)Oc2cc(Cl)cc(Cl)c2)cc1 [Compound 46, 3,5-dichlorophenyl 4-(3-cyano-2,2-dimethylpropanoylamino)benzoate]
4.1	CC(C)C(=O)Nc1ccc(C(=O)Oc2cc(Cl)cc(Cl)c2)cc1 [Compound 7, 3,5-dichlorophenyl 4-(isobutanoylamino)benzoate]
2.7	CC(C)(C)C(=O)Nc1ccc(C(=O)Oc2cc(F)ccc2[N+](=O)[O-])cc1 [Compound 59, 3-fluoro-6-nitrophenyl 4-(pivaloylamino)benzoate]
1.9	CC(C)C(=O)Nc1ccc(C(=O)Oc2cc(Cl)cc(OC(=O)C(C)C)c2)cc1 [Compound 76, 3-chloro-5-isobutanoyloxyphenyl 4-(isobutanoylamino)benzoate]
1.9	CCCC(=O)Nc1ccc(C(=O)Oc2cc(Cl)cc(Cl)c2)cc1 [Compound 3, 3,5-dichlorophenyl 4-(butanoylamino)benzoate]
